Experimental data taken from patent US20250319115A1, “Compositions and Methods for Modulating Cytokines” (Flagship Pioneering Innovations VII, LLC, priority 2022, published 2025).

Columns and labels:
IL-4 signaling pathway = assay: HEK-Blue IL-4 SEAP reporter assay; assay type: cell-based
Description: The effects of putative inhibitors on pro-inflammatory cytokine pathways are assessed using HEK-Blue cells engineered for the detection of bioactive cytokines via activation of JAK/STAT pathways and subsequent expression of the SEAP reporter gene. Cells are treated with their relevant cytokines+/−peptides or control antibodies, and 20 hours after treatment activation of the relevant cytokine receptor is determined via SEAP expression through mixing cell supernatants with a Quanti-Blue colorimetric reagent and measuring optical density at 600 nm.
Reporter lines HEK-Blue TL-4/TL-15/IFN-alpha were cultured in DMEM with GlutaMAX and 10% HI FBS (Gibco). Cells were seeded into black 96-well optical clear flat-bottomed PhenoPlates at densities of 25000 cells/well and 100 uL/well and allowed to rest overnight in a 37 C incubator with 5% CO2. After 24 hours, cells were treated with 10 μL of their relevant cytokines (StemCell Technologies) at the previously determined EC75 for activation (1.164 ng/mL for HEK-Blue IL-4, 2.26 ng/mL for HEK-Blue IL-15, and 0.456 ng/mL for HEK-Blue IFN-alpha), with or without 10 μL of peptides (5 uM final concentration) or control antibodies (1 ug/well). Cells were kept overnight in a 37 C incubator with 5% C02.
20-22 hours after treatment, 20 μL of the cell supernatants were collected and transferred to 96-well white flat opaque-bottom plates (Costar) and each sample was mixed with 180 μL of Quanti-Blue reagent. Colorimetric reactions were allowed to develop in a 37 C incubator with 5% C02 for a certain duration of time (3 hours for HEK-Blue IL-4, 2 hours for HEK-Blue IL-15, and 1 hour for IFN-alpha). Assay plates were then removed from the incubator and the optical density of each well was measured at 600 nm on a GloMax plate reader. Relative activation of the cytokine signaling pathway in question was determined by ratioing the optical density of each sample to the average optical density for the cytokine-only treated cells from the same plate.

[1] = tested on: CD3/CD28 (TransAct) activated PBMCs; assay: PBMC cytokine release by Cytometric BeadArray, Inhibition format (peptide with anti-CD3/CD28 T-cell activator); assay type: cell-based, human; parameters: key to Inhibition by Analyte: IL-1b / Inhibition by Analyte: IL-2 / Inhibition by Analyte: TNF / Inhibition by Analyte: IP-10 / Inhibition by Analyte: IL-10: X = a hit with significant activation or inhibition of relevant cytokine release; conditions: peptide applied with anti-CD3/CD28 T-cell activator, 24 hours, supernatant CBA
Description: Peripheral Blood Mononuclear Cells were seeded+/−the T-cell activator […] and +/−peptides for 24-48 hours. Cytokines were measured from the supernatant after incubation by CBA Cytometer.
Thawing PBMCs: PBMCs were thawed by pre-warming TexMACS media (Miltenyi Biotech) in 20 ml aliquots-1-50 ml conical per donor. After the media was warmed to 37° C., cells were removed from liquid nitrogen and brought to the tissue culture hood. For each donor, 1 ml of media from the warmed aliquot was added to the frozen vial and mixed up and down. The media plus thawed cells were then added back to the 50 ml conical. This was repeated until all the cells were thawed and added to the 50 ml tube. Continue with other donors if used. Spin cells for 5 min at 400×g. Supernatant was aspirated and cells resuspended at ˜10*10^6 cells/ml (see vial for cell number).
PBMC Plating: Frozen PBMCs from normal, healthy, human volunteers (StemCell Technologies) were thawed and plated at 250,000 cells/well. After PBMCs were thawed and resuspended at […], cells were then counted (Countess III, Thermo Scientific) and adjusted based on counts to […]. Take the number of PBMCs determined by number of wells for the experiment, for example, 10 wells would need 2.5*10^6 cells total or 0.250 ml. The cells needed for the experiment are then transferred to another conical tube. Warmed TexMACS media is added so that the final concentration is 250,000 cells/190 ul media, for example, 10 wells would need 1.9 ml (190 ul×10 wells) of media total minus 0.250 ml of cells (1.9 ml-0.250 ml) or 1.65 ml of media added to the 0.250 ml of cells. Add 190 ul of cells plus media to the 96 well U-bottom plate. Place in incubator until dilutions are made and ready.
Peptide Dilutions: Ideally, all peptides should be at a starting concentration of at least 10 mM, especially for those in DMSO (ATCC) to reach a final concentration of 1 uM (H2O) or 0.5 uM (DMSO). Dilutions of all test articles should be made at 20× the final concentration, for example, a final concentration of 1 uM peptide would need to be made at 20 uM.
Reagent Dilution: Dilutions are made in TexMACS media, enough for 10 ul/well in triplicate (30 ul of a 20×). Activator—CD3/CD28 (TransAct; Miltenyi Biotech) or cytokine will be at 21× and added after the 45-minute incubation with peptides. Be sure to include relevant controls—Positive: TransAct+Cells, Negative: Vehicle+Cells. Dilutions should also be made in a ultra-low binding plate (Corning).
Assay Procedure: Peptide Treatment: Start assay by thawing the cells and plating in a 96 well, U-bottom tissue culture plate (Corning) as described above. Cell plates are placed in a tissue culture incubator (5% CO2, 37° C.). While cells are in the incubator, start making dilutions (optimally 1 hr or less) as described above. Cell plates are removed from the incubator and 10 ul of the 20× dilutions are added to the relevant wells. After the addition of inhibitors, cell plates are placed in the tissue culture incubator for 45 minutes. The plates are removed from the incubator and 10 ul of 21× TransAct is added to the relevant wells*. Plates are then returned to the incubator and incubated for 24 hours. After 24 hours, plates are spun for 5 minutes at 400×g.
* Activation: This assay can be run in two different formats—Activation and Inhibition. The procedure is the same except no TransAct is needed in the peptide wells for Activation. TransAct is only needed in the control wells. The purpose of this procedure is to determine the possible response from peptides alone.
Cytometric BeadArray (CBA): After the spin, supernatants (˜150 ul) are transferred to a new, ultra-low binding U-bottom plate. Supernatants are then frozen at −20° C. until thawed for CBA (BD) to determine levels of human IL-2, TNFα, IL-1b, IP-10, IL-10, and IFNg. CBA was run according to the manufacturers protocol.

[2] = tested on: primary human CD8+ T cells; assay: T cell activation markers in isolated CD8+ T cells +/- CD3/CD28 (ELISA, CD69 flow cytometry); assay type: cell-based
Description: To determine the effect of the Target Protein on T cell activity, the Target Protein, irrelevant proteins, a single amino acid mutant Target Protein and controls were applied to primary human T cells isolated from Peripheral Blood Mononuclear Cells (PBMCs)+/−CD3/CD28. 24 hours later the levels of extra-cellular CD69, IL-2, and TNFalpha (72 hours for IFN-gamma) were evaluated.
Isolation of PBMCfrom Leukopak: The isolation of peripheral blood mononuclear cells (PBMC) from a leukopak sample was conducted using the EasySep™ Direct Human PBMC Isolation Kit (Cat #19654, StemCell Technologies, Vancouver, BC, Canada) following the manufacturer's instructions. A leukopak sample was prepared within a volume range of 125 mL and added to a T-75 cm2 cell culture flask. EDTA was added to the sample to achieve a final concentration of 6 mM. The Isolation Cocktail provided in the kit was added to the sample without vortexing, and the sample was mixed and incubated at room temperature (RT) for 5 minutes. EasySep buffer was added to double the original sample volume, followed by the addition of vortexed RapidSpheres™. The flask was placed into a magnet and incubated at RT for 5 minutes. The cell suspension was carefully pipetted into a new T-75 cm2 flask, and RapidSpheres™ were added to the enriched cells. The flask was placed back into the magnet for a second separation at RT for 5 minutes. Finally, the cell suspension was carefully pipetted into a new tube or centrifuge bottle, and the isolated PBMCs were ready for use.
Isolation of primary human T-cells: Following the isolation of PBMCs, CD8^+ T cells were isolated using the EasySep™ Human CD8^+ T Cell Isolation Kit (Cat #17953, StemCell Technologies, Vancouver, BC, Canada) according to the manufacturer's instructions. The PBMC sample was prepared at a concentration of […] within a volume range of 2 mL and added to a 5 mL polystyrene round-bottom tube. The Isolation Cocktail provided in the kit (50 μL/mL of sample) was added to the sample without vortexing, mixed, and incubated at RT for 5 minutes. RapidSpheres™ were vortexed for 30 seconds to ensure even dispersion and then added to the sample at a concentration of 50 μL/mL of sample. The EasySep buffer was added to top up the sample to a total volume of 2.5 mL, and the sample was mixed by gently pipetting up and down 2-3 times. The tube (without lid) was placed into the magnet and incubated at RT for 3 minutes. After incubation, the magnet was picked up, and in one continuous motion, the magnet and tube were inverted, pouring the enriched cell suspension into a new tube. The isolated CD8^+ T cells were now ready for use.
Peptide treatment: Isolated CD8^+ T cells were plated in a 96-well format plate at a density of 1×10^5 cells per well. […]

[3] = CD8+ T cells, 10 μM, CD3/CD28, 24 hours, ELISA

SEQ ID NO: 4227: novel peptide capable of inhibiting pro-inflammatory cytokine pathways (LAVFVIIRNLSDYLSFFFPFLLELLAVEEHHAYL; listed as Homo sapiens)
inhibitor of the IL-4 signaling pathway (grade in words) (IL-4 signaling pathway; FIG. 9): moderate | Relative activity (compared to cytokine only controls), Cytokine IL-4 (IL-4 signaling pathway; peptide 5 uM, cytokine at EC75, SEAP OD 600 nm): −50%

SEQ ID NO: 4524: novel, secreted peptide that enhances T cell activation (LDFIRAFLLLLVASVPGKIGSQNLTAQRPPVATSFLQMESSEPTVRK; listed as Homo sapiens)
Inhibition by Analyte: IL-1b [1]: X | Inhibition by Analyte: IL-2 [1]: X | Inhibition by Analyte: IP-10 [1]: X | Inhibition by Analyte: TNF [1]: X | T cell activation markers in CD8+ T cells (TNFα, IL-2, CD69) ([2]; 10 μM vs scrambled protein, with CD3/CD28 antibody cocktail, 24 hours): increases | T-cell activation marker IL-2 [2, 3]: significantly up-regulates | T-cell activation marker TNFalpha [2, 3]: significantly up-regulates | T-cell activation marker CD69 ([2]; CD8+ T cells, 10 μM, CD3/CD28, 24 hours, flow cytometry): significantly up-regulates
